Measured values published in patent US12428380B2 (PSYLO PTY LTD, priority 2023, dated 2025).

Columns and labels:
Assay type in all cases: cell-based
[1] = target: T1, 5-HT2A (Homo sapiens, UniProt P28223); assay: FLIPR Ca2+ flux functional assay, 5-HT2A (HEK293); conditions: HEK293 cells expressing 5-HT2A; for Emax: HEK293, agonist activity; for EC50: agonist activity
T1 construct: host or cells: HEK293

[2] = target: T2, 5-HT2C (Homo sapiens, UniProt P28335); assay: FLIPR Ca2+ flux functional assay, 5-HT2C (HEK293); conditions: HEK293 cells expressing 5-HT2C; for Emax: HEK293, agonist activity; for EC50: agonist activity
T2 construct: host or cells: HEK293
T2 sequence (P28335 33-458): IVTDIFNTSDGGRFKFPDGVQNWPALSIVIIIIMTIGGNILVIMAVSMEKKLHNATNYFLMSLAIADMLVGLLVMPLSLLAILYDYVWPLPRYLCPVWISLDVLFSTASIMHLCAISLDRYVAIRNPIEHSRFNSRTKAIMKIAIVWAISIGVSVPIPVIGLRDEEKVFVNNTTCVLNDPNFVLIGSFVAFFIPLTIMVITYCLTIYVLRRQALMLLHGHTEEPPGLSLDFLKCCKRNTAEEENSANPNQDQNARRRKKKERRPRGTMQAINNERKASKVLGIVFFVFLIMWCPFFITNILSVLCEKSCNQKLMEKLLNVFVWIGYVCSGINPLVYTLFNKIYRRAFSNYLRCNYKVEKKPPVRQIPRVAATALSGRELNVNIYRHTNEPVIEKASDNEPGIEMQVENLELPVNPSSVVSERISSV

[3] = target: T3, 5-HT2B (Homo sapiens, UniProt P41595); assay: Activation in a similar Ca2+ flux assay at a single concentration, 5-HT2B; conditions: head prints 10 µM
T3 construct: host or cells: CHO-K1
Experimental: Activity at 5-HT2A, 5-HT2B and 5-HT2C receptors was determined using a FLIPR Ca2+ flux assay at WuXi AppTec Co. Ltd. (Hong Kong) Discovery Biology Unit according to their standard protocols. Briefly, stably transfected cells expressing the receptor of interest (HEK293 for 5-HT2A and 5-HT2C; CHO-K1 for 5-HT2B) were grown and plated in a 384 well plate and incubated at 37° C. and 5% CO2 overnight. A 250 mM stock solution of probenecid in FLIPR calcium assay buffer (10 mL) was freshly prepared and combined with a fluorescent dye (Fluo-4 Direct) to give a final assay concentration of 2.5 mM. Reference compounds were 4-fold serially diluted and the screening compounds were 3-fold serially diluted in 100% DMSO for 10 points using Agilent Bravo, and 750 nL was added to a 384 well compound plate using Echo along with 30 μL assay buffer. The fluorescent dye was then added to the assay plate along with assay buffer to a final volume of 40 μL. The cell plate was incubated for 50 min at 37° C. and 5% CO2 and placed into the FLIPR Tetra along with the compound plate. 10 μL of references and compounds were then transferred from the compound plate into the cell plate and the fluorescent signal was read.
Activation data are provided in a similar assay tested at a single 10 μM concentration.

T1 sequence (P28223 whole entry): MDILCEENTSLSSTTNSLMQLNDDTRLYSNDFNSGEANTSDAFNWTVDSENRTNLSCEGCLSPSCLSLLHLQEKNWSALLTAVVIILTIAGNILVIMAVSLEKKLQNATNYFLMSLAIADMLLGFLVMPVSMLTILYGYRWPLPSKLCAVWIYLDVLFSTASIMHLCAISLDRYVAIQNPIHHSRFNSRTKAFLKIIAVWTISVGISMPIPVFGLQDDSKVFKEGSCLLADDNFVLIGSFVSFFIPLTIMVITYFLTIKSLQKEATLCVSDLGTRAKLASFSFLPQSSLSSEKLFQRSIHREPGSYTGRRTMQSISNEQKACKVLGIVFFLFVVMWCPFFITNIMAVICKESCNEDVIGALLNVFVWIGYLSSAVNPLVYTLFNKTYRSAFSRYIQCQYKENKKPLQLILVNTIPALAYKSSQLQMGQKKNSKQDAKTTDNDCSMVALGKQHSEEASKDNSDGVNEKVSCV
T3 sequence (P41595 whole entry, species assumed): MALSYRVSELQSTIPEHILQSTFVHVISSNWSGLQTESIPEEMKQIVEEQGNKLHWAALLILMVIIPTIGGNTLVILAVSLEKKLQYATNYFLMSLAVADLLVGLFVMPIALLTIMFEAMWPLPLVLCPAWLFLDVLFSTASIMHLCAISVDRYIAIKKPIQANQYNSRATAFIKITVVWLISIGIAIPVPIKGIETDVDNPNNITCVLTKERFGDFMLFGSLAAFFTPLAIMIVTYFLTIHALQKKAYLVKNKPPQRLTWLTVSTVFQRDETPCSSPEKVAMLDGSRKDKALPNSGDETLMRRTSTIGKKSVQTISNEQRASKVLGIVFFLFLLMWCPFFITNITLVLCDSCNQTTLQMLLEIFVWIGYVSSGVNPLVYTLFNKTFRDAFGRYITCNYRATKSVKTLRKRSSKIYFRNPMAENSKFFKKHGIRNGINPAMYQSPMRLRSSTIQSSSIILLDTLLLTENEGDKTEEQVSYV

Work on `CC(C)N(C)CCc1n[nH]c2c(F)cc(F)cc12` [Example A37, N-(2-(5,7-difluoro-1H-indazol-3-yl)ethyl)-N-methylpropan-2-amine] yielded an Emax [1] of 57%, an EC50 [1] of 0.81 µM and an Emax [2] of 11%. For the same molecule, the EC50 [2] was greater than 10 µM and the “5-HT2B % Activation @ 10 µM” value [3] was 0%.
`COc1cc(F)cc2[nH]nc(CCN(C)C)c12` [Example A38, 2-(6-fluoro-4-methoxy-1H-indazol-3-yl)-N,N-dimethylethan-1-amine] gave an Emax [1] of 77%, an EC50 [1] of 0.075 µM and an Emax [2] of 75%. The EC50 [2] was 0.203 µM and the “5-HT2B % Activation @ 10 µM” value [3] was 0%.
Molecule `CCN(C)CCc1n[nH]c2cc(F)cc(OC)c12` [Example A39, N-ethyl-2-(6-fluoro-4-methoxy-1H-indazol-3-yl)-N-methylethan-1-amine] has an Emax [1] of 75%, an EC50 [1] of 0.116 µM and an Emax [2] of 78%. For the same molecule, the EC50 [2] was 0.375 µM and the “5-HT2B % Activation @ 10 µM” value [3] was 0%.
`COc1cc(F)cc2[nH]nc(CCN(C)C(C)C)c12` [Example A40, N-(2-(6-fluoro-4-methoxy-1H-indazol-3-yl)ethyl)-N-methylpropan-2-amine] showed an Emax [1] of 72%, an EC50 [1] of 0.322 µM and an Emax [2] of 68%. For the same molecule, the EC50 [2] was greater than 10 µM and the “5-HT2B % Activation @ 10 µM” value [3] was 0%.
Work on `COc1cc(F)cc2[nH]nc(CCN3CCC4CC43)c12` (stereo not drawn) [Example A43, 3-(2-(2-azabicyclo[3.1.0]hexan-2-yl)ethyl)-6-fluoro-4-methoxy-1H-indazole] yielded an Emax [1] of 89%, an EC50 [1] of 0.0297 µM and an Emax [2] of 99%. The EC50 [2] was 0.0399 µM and the “5-HT2B % Activation @ 10 µM” value [3] was 102%.
Work on `COc1ccc(F)c2[nH]nc(CCN(C)C)c12` [Example A44, 2-(7-fluoro-4-methoxy-1H-indazol-3-yl)-N,N-dimethylethan-1-amine] yielded an Emax [1] of 52%, an EC50 [1] of 0.093 µM and an Emax [2] of 44%. The EC50 [2] was 0.222 µM and the “5-HT2B % Activation @ 10 µM” value [3] was 0%.
`CCN(C)CCc1n[nH]c2c(F)ccc(OC)c12` [Example A45, N-ethyl-2-(7-fluoro-4-methoxy-1H-indazol-3-yl)-N-methylethan-1-amine] gave an Emax [1] of 67%, an EC50 [1] of 0.163 µM and an Emax [2] of 61%. For the same molecule, the EC50 [2] was 0.614 µM and the “5-HT2B % Activation @ 10 µM” value [3] was 0%.
Work on `COc1ccc(F)c2[nH]nc(CCN(C)C(C)C)c12` [Example A46, N-(2-(7-fluoro-4-methoxy-1H-indazol-3-yl)ethyl)-N-methylpropan-2-amine] yielded an Emax [1] of 74%, an EC50 [1] of 0.133 µM and an Emax [2] of 0%. For the same molecule, the EC50 [2] was greater than 10 µM and the “5-HT2B % Activation @ 10 µM” value [3] was 0%.
`COc1ccc(F)c2[nH]nc(CCN3CCC3)c12` [Example A47, 3-(2-(azetidin-1-yl)ethyl)-7-fluoro-4-methoxy-1H-indazole] was tested, and the Emax [1] was 88%, the EC50 [1] was 0.105 µM and the Emax [2] was 72%. For the same molecule, the EC50 [2] was 0.064 µM and the “5-HT2B % Activation @ 10 µM” value [3] was 17%.
With `COc1ccc(F)c2[nH]nc(CCN3CCC4CC43)c12` (stereo not drawn) [Example A49, 3-(2-(2-azabicyclo[3.1.0]hexan-2-yl)ethyl)-7-fluoro-4-methoxy-1H-indazole] the Emax [1] was 69%, the EC50 [1] was 0.216 µM and the Emax [2] was 59%. For the same molecule, the EC50 [2] was 0.166 µM and the “5-HT2B % Activation @ 10 µM” value [3] was 7%.
Work on `COc1cc(F)c2[nH]nc(CCN(C)C)c2c1` [Example A50, 2-(7-fluoro-5-methoxy-1H-indazol-3-yl)-N,N-dimethylethan-1-amine] yielded an Emax [1] of 79%, an EC50 [1] of 0.242 µM and an Emax [2] of 11%. The EC50 [2] was greater than 10 µM and the “5-HT2B % Activation @ 10 µM” value [3] was 2%.
Work on `CCN(C)CCc1n[nH]c2c(F)cc(OC)cc12` [Example A51, N-ethyl-2-(7-fluoro-5-methoxy-1H-indazol-3-yl)-N-methylethan-1-amine] yielded an Emax [1] of 85%, an EC50 [1] of 0.088 µM and an Emax [2] of 43%. The EC50 [2] was 1.37 µM and the “5-HT2B % Activation @ 10 µM” value [3] was 1%.
For `COc1cc(F)c2[nH]nc(CCN(C)C(C)C)c2c1` [Example A52, N-(2-(7-fluoro-5-methoxy-1H-indazol-3-yl)ethyl)-N-methylpropan-2-amine], the Emax [1] was 42%, the EC50 [1] was 0.65 µM and the Emax [2] was 0%. For the same molecule, the EC50 [2] was greater than 10 µM and the “5-HT2B % Activation @ 10 µM” value [3] was 0%.
`COc1cc(F)c2[nH]nc(CCN3CCC3)c2c1` [Example A53, 3-(2-(azetidin-1-yl)ethyl)-7-fluoro-5-methoxy-1H-indazole] showed an Emax [1] of 94%, an EC50 [1] of 0.318 µM and an Emax [2] of 48%. For the same molecule, the EC50 [2] was 1.18 µM and the “5-HT2B % Activation @ 10 µM” value [3] was 0%.
With `COc1cc(F)c2[nH]nc(CCN3CCC4CC43)c2c1` (stereo not drawn) [Example A55, 3-(2-(2-azabicyclo[3.1.0]hexan-2-yl)ethyl)-7-fluoro-5-methoxy-1H-indazole] the Emax [1] was 86.2%, the EC50 [1] was 0.0398 µM and the Emax [2] was 87%. For the same molecule, the EC50 [2] was 0.207 µM and the “5-HT2B % Activation @ 10 µM” value [3] was 48%.
`COc1cc2c(CCN3CCC3)n[nH]c2cc1F` [Example A56, 3-(2-(azetidin-1-yl)ethyl)-6-fluoro-5-methoxy-1H-indazole] showed an Emax [1] of 90%, an EC50 [1] of 0.105 µM and an Emax [2] of 50%. The EC50 [2] was 3.07 µM and the “5-HT2B % Activation @ 10 µM” value [3] was 11%.
`COc1cc2c(CCN3CC(C)C3)n[nH]c2cc1F` [Example A57, 6-fluoro-5-methoxy-3-(2-(3-methylazetidin-1-yl)ethyl)-1H-indazole] gave an Emax [1] of 70%, an EC50 [1] of 0.61 µM and an Emax [2] of 3%. For the same molecule, the EC50 [2] was greater than 10 µM and the “5-HT2B % Activation @ 10 µM” value [3] was 0%.
`COc1cc2c(CCN3CCC3C)n[nH]c2cc1F` (stereo not drawn) [Example A58, 6-fluoro-5-methoxy-3-(2-(2-methylazetidin-1-yl)ethyl)-1H-indazole] gave an Emax [1] of 57%, an EC50 [1] of 1.13 µM and an Emax [2] of 19%. The EC50 [2] was greater than 10 µM and the “5-HT2B % Activation @ 10 µM” value [3] was 0%.
`COc1cc2c(CCN3CCCC3)n[nH]c2cc1F` [Example A59, 6-fluoro-5-methoxy-3-(2-(pyrrolidin-1-yl)ethyl)-1H-indazole] showed an Emax [1] of 79%, an EC50 [1] of 0.202 µM and an Emax [2] of 66%. The EC50 [2] was 3.87 µM and the “5-HT2B % Activation @ 10 µM” value [3] was 5%.
`COc1cc2c(CCN3CCC4CC43)n[nH]c2cc1F` (stereo not drawn) [Example A60, 3-(2-(2-azabicyclo[3.1.0]hexan-2-yl)ethyl)-6-fluoro-5-methoxy-1H-indazole] was tested, and the Emax [1] was 92%, the EC50 [1] was 0.00812 µM and the Emax [2] was 90%. The EC50 [2] was 0.255 µM and the “5-HT2B % Activation @ 10 µM” value [3] was 89%.
In the case of `COc1ccc2[nH]nc(CCNCc3ccccc3)c2c1` [Example A62, N-benzyl-2-(5-methoxy-1H-indazol-3-yl)ethan-1-amine], the Emax [1] is reported as 81%, the EC50 [1] is reported as 0.0291 µM and the Emax [2] is reported as 85%. For the same molecule, the EC50 [2] was 0.179 µM and the “5-HT2B % Activation @ 10 µM” value [3] was 0%.
`COc1ccc2[nH]nc(CCNCc3ccccc3OC)c2c1` [Example A63, 2-(5-methoxy-1H-indazol-3-yl)-N-(2-methoxybenzyl)ethan-1-amine] showed an Emax [1] of 92%, an EC50 [1] of 0.00224 µM and an Emax [2] of 88%. For the same molecule, the EC50 [2] was 0.0325 µM and the “5-HT2B % Activation @ 10 µM” value [3] was 11%.
With `COc1ccc2[nH]nc(CCNCc3ccccc3F)c2c1` [Example A64, N-(2-fluorobenzyl)-2-(5-methoxy-1H-indazol-3-yl)ethan-1-amine] the Emax [1] was 79%, the EC50 [1] was 0.0687 µM and the Emax [2] was 82%. For the same molecule, the EC50 [2] was 0.602 µM and the “5-HT2B % Activation @ 10 µM” value [3] was 0%.
With `COc1ccc2[nH]nc(CCNCc3cccc(F)c3)c2c1` [Example A65, N-(3-fluorobenzyl)-2-(5-methoxy-1H-indazol-3-yl)ethan-1-amine] the Emax [1] was 70%, the EC50 [1] was 0.0916 µM and the Emax [2] was 81%. For the same molecule, the EC50 [2] was 0.891 µM and the “5-HT2B % Activation @ 10 µM” value [3] was 1%.
`COc1cccc(CNCCc2n[nH]c3ccc(OC)cc23)c1` [Example A66, 2-(5-methoxy-1H-indazol-3-yl)-N-(3-methoxybenzyl)ethan-1-amine] showed an Emax [1] of 63%, an EC50 [1] of 0.05 µM and an Emax [2] of 53%. For the same molecule, the EC50 [2] was 1.26 µM and the “5-HT2B % Activation @ 10 µM” value [3] was 0%.
`CN(C)CCc1n[nH]c2c(F)cccc12` [Example A67, 2-(7-fluoro-1H-indazol-3-yl)-N,N-dimethylethan-1-amine] gave an Emax [1] of 63%, an EC50 [1] of 0.422 µM and an Emax [2] of 37%. The EC50 [2] was 1.67 µM and the “5-HT2B % Activation @ 10 µM” value [3] was 0%.
`CCN(C)CCc1n[nH]c2c(F)cccc12` [Example A68, N-ethyl-2-(7-fluoro-1H-indazol-3-yl)-N-methylethan-1-amine] showed an Emax [1] of 40%, an EC50 [1] of 0.469 µM and an Emax [2] of 32%. For the same molecule, the EC50 [2] was 1.92 µM and the “5-HT2B % Activation @ 10 µM” value [3] was 0%.
